Here are results for 80 compounds from the METLIN SMRT retention time set (Domingo-Almenara et al. 2019).

The nature of the data set: gradient 5% acetonitrile 3 min, to 50% in 2 min, to 85% in 15 min, held 3 min, 100 µL/min. Conditions: column: Zorbax Extend-C18 2.1 x 50 mm; eluents: water / acetonitrile, 0.1% formic acid. In outline:
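In both positive and negative ionization mode, a quadrupole time-of-flight mass spectrometer coupled to HPLC analyzed pure standards run in mixtures of ~100 molecules. The Zorbax Extend-C18 column (2.1 × 50 mm, 1.8 μm) was operated at 100 μL/min with water and acetonitrile, each containing 0.1% formic acid. The dead volume was 40 μL and the dwell volume 900 μL. Retention time came from adduct peaks that were computationally picked and individually inspected by hand.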
In the case of `O=C(NCCn1c(-c2ccc(F)cc2)nc2cccnc21)Nc1ccc2c(c1)OCCO2`, the RP-LC retention time is 682 s.

As to `CC(C)CNC(=O)N1CCCCC1c1nncn1-c1ccccc1` (stereo not given), the RP-LC retention time was 683 s.

For `COc1cc(CCNCc2c(C(=O)O)n(C)c3ccccc23)cc(OC)c1OC`, the RP-LC retention time is 656 s.

Compound `COc1cccc(CN2CC(c3nc(CCOCc4ccccc4)no3)C2)c1` returned an RP-LC retention time of 708 s.

`COCc1nc2ccccc2n1CC(=O)Nc1ccccc1`: the RP-LC retention time was 780 s.

In the case of `COc1ccc(-c2nc(NCc3ccco3)ncc2C(=O)O)cc1`, the RP-LC retention time was 781 s.

Regarding `Cc1cc2nn(CC(=O)NCc3ccc(F)cc3)c(=O)n2c(-c2ccccc2)n1`, the RP-LC retention time came out at 744 s.

`Cc1ccc(F)c(NC(=O)C2CCc3nc(N4CCOCC4)ncc3C2)c1` (stereo not given) displayed an RP-LC retention time of 735 s.

`CCn1c(=O)sc2cc(S(=O)(=O)N3CCC(C(=O)Nc4nc(C)cs4)CC3)ccc21`: the RP-LC retention time was 827 s.

`O=S(=O)(NCCCN1CCOC(c2ccccc2)C1)c1ccccc1Cl` (stereo not given) yielded an RP-LC retention time of 576 s.

`CN(C)CCSc1ncccc1C(=O)NCc1cccs1`: the RP-LC retention time turned out to be 583 s.

`CCN1C(=O)COc2ccc(-c3nc(NC(=O)c4cccnc4)sc3C)cc21`: the RP-LC retention time turned out to be 784 s.

`COC(=O)c1ccc2c(=O)n(-c3ccc(OC)c(OC)c3)c(N3CCC(C)CC3)nc2c1`: the RP-LC retention time was determined as 1070 s.

In turn, `COc1cc(CNC(=O)CCCC/C=C\C(C)C)ccc1O` displayed an RP-LC retention time of 947 s.

In turn, `Cc1nc(-c2cn(C(C)C)c3ncccc23)sc1C(=O)NCCC(C)C` showed an RP-LC retention time of 1070 s.

With `O=c1ccc(-c2ccc3c(c2)OCO3)nn1CCc1nc(-c2ccc3c(c2)OCO3)no1`, the RP-LC retention time is 893 s.

Regarding `O=C(NCc1ccccc1)N1[C@H]2CC[C@@H]1c1cnc(-c3ccccc3)nc1C2`, the RP-LC retention time came to 865 s.

`CCOC(=O)/C(=N\O)C1=CSC2=NNC(C)(C)N12`: the RP-LC retention time was determined as 907 s.

In the case of `CCOC(=O)c1noc2ncnc(N3CCCc4ccccc43)c12`, the RP-LC retention time came to 988 s.

As to `OCC(O)COc1cccc2ccccc12` (stereo not given), the RP-LC retention time turned out to be 758 s.

The compound `O=C(C1CC1)N1CCc2sc(S(=O)(=O)Nc3ccccc3Br)cc2C1` displayed an RP-LC retention time of 858 s.

With `CSc1ccc(CNC(=O)C2CCCN(c3nccn4nc(-c5ccc(F)cc5)cc34)C2)cc1` (stereo not given), the RP-LC retention time was 951 s.

The compound `Cc1ccc(CNC(=O)N2CCC(OC3CCN(Cc4ccccc4)CC3)CC2)cc1` gave an RP-LC retention time of 681 s.

For the compound `O=C1CCN(CC2CCCCC2)CCCC(c2nc(-c3cnccn3)no2)CCN1` (stereo not given), the RP-LC retention time stood at 619 s.

Compound `CC(C)CCNC(=O)C1CCN(S(=O)(=O)c2ccc3c(c2)NC(=O)CO3)CC1` returned an RP-LC retention time of 744 s.

Regarding `Cc1ccccc1CNC(=O)c1cc2n(n1)CC(C)(C(=O)NC1CCCC1)N(C)C2=O` (stereo not given), the RP-LC retention time came to 767 s.

Compound `Cc1ccc(-c2cc3c(=O)n(Cc4noc(CN5CCc6ccccc65)n4)ccn3n2)cc1` registered an RP-LC retention time of 1100 s.

On to `Cc1nc2cc(-c3noc(COc4ccccc4)n3)ccc2n(C2CCCC2)c1=O`, for which the RP-LC retention time came to 1200 s.

For the compound `CCCCn1c(=O)c2ccccc2n(Cc2nc(-c3ccc(OC)cc3)no2)c1=O`, the RP-LC retention time worked out at 1160 s.

For `COc1ccc(S(=O)(=O)N2CCCC(C(=O)NC3CCCC3)C2)cc1C` (stereo not given), the RP-LC retention time is 901 s.

On to `CCNC(=O)c1[nH]c2ccc(F)cc2c1N1CCCC1=O`, for which the RP-LC retention time was found to be 676 s.

`CCNc1nc(C)cc(N2CCN(C(=O)Nc3cc(OC)cc(OC)c3)CC2)n1` had an RP-LC retention time of 657 s.

In turn, `CCn1cc(-c2nc(C)c(C(=O)Nc3ccccc3F)s2)c2cccnc21` had an RP-LC retention time of 1000 s.

As to `CN(C)c1ccc(CCCNS(=O)(=O)c2ccc(Cl)s2)cc1`, the RP-LC retention time turned out to be 655 s.

For the compound `CN(C)CCNC(=O)Cn1c2ccccc2c2cnn(C)c(=O)c21`, the RP-LC retention time is 576 s.

On to `CC(C)c1cc(NCc2ccccn2)n2ncc(-c3ccccc3)c2n1`, for which the RP-LC retention time is 1010 s.

On to `Cc1cc(C)c(C(=O)N2CCCC(C(=O)NCCC(C)C)C2)[nH]1` (stereo not given), for which the RP-LC retention time turned out to be 788 s.

Regarding `CCCn1c(=O)c(N2CCN(C(=O)C3CC3)CC2)nc2ccccc21`, the RP-LC retention time is 912 s.

In the case of `CC(C)CCNC(=O)Cn1c(=O)c2cccn2c2ccc(F)cc21`, the RP-LC retention time is 856 s.

In turn, `CCOc1ccc(NC(=O)Cc2c(C)nn(-c3nc(-c4ccc(F)cc4)cs3)c2C)cc1` gave an RP-LC retention time of 1200 s.

Consider `Cc1ccc(NC(=O)c2cn(-c3cc(N4CCCC4)ncn3)cn2)c(C)c1`, for which the RP-LC retention time is 961 s.

Regarding `CCc1nc2cc(N3CCC(C(=O)NCc4ccc(N(C)C)cc4)CC3)cnc2nc1CC`, the RP-LC retention time was determined as 627 s.

`CCOc1ccc(NC(=O)CN2C(=O)c3ccccc3C2=O)c([N+](=O)[O-])c1` yielded an RP-LC retention time of 839 s.

Consider `Cn1c(N2CCCC(C(=O)NC3CCN(Cc4ccccc4)CC3)C2)cc(=O)n(C)c1=O` (stereo not given), for which the RP-LC retention time was 576 s.

`COc1ccc(-c2noc(Cc3nnc(-c4cccc(F)c4)o3)n2)cc1OC`: the RP-LC retention time came out at 914 s.

As to `COc1cccc(NC(=O)Cn2cnc3c(sc4nc(-c5ccccc5)ccc43)c2=O)c1`, the RP-LC retention time stood at 982 s.

Compound `COc1cccc(NS(=O)(=O)c2cc3c(s2)CCN(C(=O)C2CC2)C3)c1` returned an RP-LC retention time of 801 s.

For the compound `COC(=O)c1c(NCC2CCCO2)c2cccc(Cl)c2[nH]c1=O` (stereo not given), the RP-LC retention time worked out at 703 s.

`COc1cccc(NC(=O)c2sc(C)nc2-c2ccc([N+](=O)[O-])cc2)c1` returned an RP-LC retention time of 849 s.

In turn, `CCCCNC(=O)c1cn(CC)nc1S(=O)(=O)N1CCN(c2ccccc2OCC)CC1` yielded an RP-LC retention time of 1080 s.

Compound `CCCN(CCC)c1nc(-c2ccc(Cl)cc2)nc2ccccc12` showed an RP-LC retention time of 961 s.

Take `O=c1c2cc(-c3ccc(F)cc3)nn2ccn1Cc1noc(CN2CCCCCC2)n1`: the RP-LC retention time was determined as 683 s.

Turning to `O=C(c1cccs1)N1CCN(c2ccc(=O)n(-c3ccccc3)n2)CC1`, the RP-LC retention time was 733 s.

In the case of `CCN1C(=O)C(CC(=O)N2CCCC2)Sc2ncccc21` (stereo not given), the RP-LC retention time amounted to 654 s.

As for `Cc1cc(C)c2c(n1)SCC(=O)N2CC(=O)NCCCN(C)Cc1ccccc1`, the RP-LC retention time amounted to 587 s.

The compound `O=C(NC1(c2nc(-c3ccncc3)no2)CCCCC1)c1ccc2c(c1)OCO2` showed an RP-LC retention time of 876 s.

The compound `COc1ccc(CNC(=O)N2c3ccccc3CC2c2nc(C3CC3)no2)cc1` (stereo not given) registered an RP-LC retention time of 1180 s.

As for `Cc1cc(-n2nnc(C(=O)O)c2-c2ccccn2)ccc1F`, the RP-LC retention time is 642 s.

Consider `Cc1nnc(-c2c(S(=O)(=O)NC3CCN(Cc4ccccc4)CC3)c(C)n(C)c2C)o1`, for which the RP-LC retention time was 602 s.

For `COc1ccc(-c2nc(C)cc(C)c2CNS(=O)(=O)c2cccc(C)c2)cc1`, the RP-LC retention time was 668 s.

Compound `O=C(Nc1cc(F)c(F)c(F)c1)N1CCc2nc[nH]c2C1` returned an RP-LC retention time of 614 s.

In the case of `COc1cccc(-c2[nH]ncc2CN2C[C@@H]3CCN(S(C)(=O)=O)C[C@]3(CF)C2)c1`, the RP-LC retention time was found to be 599 s.

`Cc1sc2ccn(CC(C)C)c(=O)c2c1C(=O)N(C)Cc1ccccc1` showed an RP-LC retention time of 917 s.

`Oc1ccc(-c2nc3ccc(Cl)cn3c2Nc2ccc3c(c2)OCCO3)cc1`: the RP-LC retention time is 748 s.

Regarding `CCC(=O)NCc1csc(C2CCN(C(=O)c3ccc(Br)cc3)CC2)n1`, the RP-LC retention time was found to be 722 s.

As to `CCOC(=O)Oc1c(OC)cc(C(=O)O[C@@H]2C[C@@H]3CN4CCc5c([nH]c6cc(OC)ccc56)[C@H]4C[C@@H]3[C@H](C(=O)OC)[C@H]2OC)cc1OC`, the RP-LC retention time was 935 s.

`Cc1nc2cc(-c3noc(Cc4c(F)cccc4Cl)n3)ccc2o1` showed an RP-LC retention time of 1050 s.

`O=C(NCCc1ccsc1)C(=O)Nc1cccc(N2CCCCC2=O)c1` showed an RP-LC retention time of 719 s.

Turning to `CC(=O)Nc1cccc(-c2nc(-c3ccc4ncn(C(C)C)c4c3)no2)c1`, the RP-LC retention time came to 660 s.

`Cc1cccc(NS(=O)(=O)c2cn(C(C)C)c3ncccc23)c1` returned an RP-LC retention time of 892 s.

Compound `CCOC(=O)c1cc(S(=O)(=O)N2CCCC2C(=O)Nc2ccc(F)cc2)cn1C` (stereo not given) returned an RP-LC retention time of 920 s.

With `Cc1oc2c(c1C(=O)Nc1ccccc1Br)C1=NCCN1C=N2`, the RP-LC retention time came to 628 s.

Regarding `CCn1c(C2CCN(S(=O)(=O)c3cccc4nsnc34)C2)nc2cccnc21` (stereo not given), the RP-LC retention time was 705 s.

For `CS(=O)(=O)N1C[C@H]2CCN(Cc3ccc(Cl)cc3F)C[C@H]21`, the RP-LC retention time was 599 s.

The compound `O=C(Nc1ccccc1)C1(CCO)CC12CCOCC2` (stereo not given) gave an RP-LC retention time of 639 s.

On to `Cc1ccc(NC(=O)N2CCCC(C)(C(=O)NCc3ccccc3C)C2)c(C)c1` (stereo not given), for which the RP-LC retention time was 1000 s.

`COc1ccc(CN2CCc3nc(N4CCN(c5ncccn5)CC4)ncc3C2)cc1` registered an RP-LC retention time of 584 s.

For the compound `O=C(NCCc1ccccc1)Nc1cccc(-c2nnc3n2CCCC3)c1`, the RP-LC retention time is 694 s.

As to `Cc1ccc(F)cc1NC(=O)Cn1cnc2nc(N3CCCC(C(=O)NC(C)C)C3)sc2c1=O` (stereo not given), the RP-LC retention time stood at 712 s.

`O=C(NC1CCN(c2cc(-c3cccs3)[nH]n2)C1)c1ccccc1Cl` (stereo not given) had an RP-LC retention time of 701 s.
